This is an account of results in US8361487B1, “Ant controllers and method for application thereof” (BASF Aktiengesellschaft, priority 1999, dated 2013).

For the test, the system named is Coptotermes formosanus Shiraki. Briefly: Test Example 1: termite-killing test on treated filter paper. It counts as in vivo. As to conditions: mortality class; 1 ml of a 500 ppm solution on filter paper, seven days after inoculation, triplicate group of 10 insects. Here is the method:
A filter paper was spread in a glass dish having a diameter of 9 cm, onto which was dropped 1 ml of a 500 ppm solution of the ant controller of the present invention. Then, the filter paper was inoculated with Coptotermes formosanus Shiraki. Seven days after the inoculation, percentage of dead insects was investigated, from which mortality was calculated. The test was carried out with triplicate group of 10 insects.
As to `N#Cc1ccc(CC(NNC(=O)Nc2ccc(OC(F)(F)F)cc2)c2cccc(C(F)(F)F)c2)cc1` (single isomer, unassigned) [Compound 118], the Termite-killing effect entry was “D (79-50)”.
Take `O=C(NN=C(Cc1ccccc1)c1ccccc1)Nc1ccc(Cl)cc1` [Compound 1]: the Termite-killing effect entry was “A (100)”.
Turning to `O=C(NN=C(Cc1ccccc1)c1ccccc1)Nc1ccc(OC(F)(F)F)cc1` [Compound 2], the Termite-killing effect result is given as “B (99-90)”.
The result for `O=C(NN=C(Cc1ccc(Cl)cc1)c1ccccc1)Nc1ccc(Cl)cc1` [Compound 3] reads “A (100)”; that for `O=C(NN=C(Cc1ccc(Cl)cc1)c1ccccc1)Nc1ccc(OC(F)(F)F)cc1` [Compound 4], “A (100)”.
The result for `N#Cc1ccc(CC(=NNC(=O)Nc2ccc(Cl)cc2)c2ccccc2)cc1` [Compound 5] reads “A (100)”; that for `N#Cc1ccc(CC(=NNC(=S)Nc2ccc(Cl)cc2)c2ccccc2)cc1` [Compound 6], “A (100)”.
Turning to `N#Cc1ccc(CC(=NNC(=S)Nc2ccc(OC(F)(F)F)cc2)c2ccccc2)cc1` [Compound 7], the Termite-killing effect result is “A (100)”.
The result for `O=C(NN=C(Cc1ccc([N+](=O)[O-])cc1)c1ccccc1)Nc1ccc(Cl)cc1` [Compound 10] reads “A (100)”; that for `O=[N+]([O-])c1ccc(CC(=NNC(=S)Nc2ccc(Cl)cc2)c2ccccc2)cc1` [Compound 11], “A (100)”.
The result for `O=C(NN=C(Cc1ccc([N+](=O)[O-])cc1)c1ccccc1)Nc1ccc(OC(F)(F)F)cc1` [Compound 12] reads “A (100)”; that for `O=[N+]([O-])c1ccc(CC(=NNC(=S)Nc2ccc(OC(F)(F)F)cc2)c2ccccc2)cc1` [Compound 13], “A (100)”.
As for `O=C(NN=C(Cc1ccc([N+](=O)[O-])cc1)c1ccccc1)Nc1ccc(SC(F)(F)F)cc1` [Compound 14], the Termite-killing effect entry was “A (100)”.
Then `O=C(NN=C(Cc1ccccc1)c1cccc(Cl)c1)Nc1ccc(OC(F)(F)F)cc1` [Compound 15], with “B (99-90)”; and `O=C(NN=C(Cc1ccc(Cl)cc1)c1cccc(Cl)c1)Nc1ccc(OC(F)(F)F)cc1` [Compound 16], with “C (89-80)”.
Then `N#Cc1ccc(CC(=NNC(=O)Nc2ccc(Cl)cc2)c2cccc(Cl)c2)cc1` [Compound 17], with “A (100)”; and `N#Cc1ccc(CC(=NNC(=S)Nc2ccc(OC(F)(F)F)cc2)c2cccc(Cl)c2)cc1` [Compound 20], with “A (100)”.
Take `N#Cc1ccc(CC(=NNC(=O)Nc2ccc(SC(F)(F)F)cc2)c2cccc(Cl)c2)cc1` [Compound 21]: the Termite-killing effect entry is listed as “A (100)”.
Take `N#Cc1ccc(CC(=NNC(=O)Nc2ccc([S+]([O-])C(F)(F)F)cc2)c2cccc(Cl)c2)cc1` (stereo not shown) [Compound 22]: the Termite-killing effect entry is “B (99-90)”.
In the case of `N#Cc1ccc(CC(=NNC(=O)Nc2ccc(S(=O)(=O)C(F)(F)F)cc2)c2cccc(Cl)c2)cc1` [Compound 23], the Termite-killing effect result was “A (100)”.
The result for `O=C(NN=C(Cc1ccccc1)c1cccc(Br)c1)Nc1ccc(Cl)cc1` [Compound 24] reads “C (89-80)”; that for `O=C(NN=C(Cc1ccccc1)c1cccc(Br)c1)Nc1ccc(OC(F)(F)F)cc1` [Compound 25], “D (79-50)”; that for `N#Cc1ccc(CC(=NNC(=O)Nc2ccc(Cl)cc2)c2cccc(Br)c2)cc1` [Compound 26], “A (100)”.
The result for `N#Cc1ccc(CC(=NNC(=O)Nc2ccc(OC(F)(F)F)cc2)c2cccc(Br)c2)cc1` [Compound 27] reads “A (100)”; that for `N#Cc1ccc(CC(=NNC(=O)Nc2ccc(SC(F)(F)F)cc2)c2cccc(Br)c2)cc1` [Compound 28], “C (89-80)”; that for `N#Cc1ccc(CC(=NNC(=O)Nc2ccc([S+]([O-])C(F)(F)F)cc2)c2cccc(Br)c2)cc1` (stereo not shown) [Compound 29], “C (89-80)”.
Turning to `N#Cc1ccc(CC(=NNC(=O)Nc2ccc(S(=O)(=O)C(F)(F)F)cc2)c2cccc(Br)c2)cc1` [Compound 30], the Termite-killing effect entry is given as “A (100)”.
Then `O=C(NN=C(Cc1ccccc1)c1cccc(F)c1)Nc1ccc(Cl)cc1` [Compound 31], with “A (100)”.
For the compound `O=C(NN=C(Cc1ccccc1)c1cccc(F)c1)Nc1ccc(OC(F)(F)F)cc1` [Compound 32], the Termite-killing effect result is reported as “A (100)”.
Then `O=C(NN=C(Cc1ccc(Cl)cc1)c1cccc(F)c1)Nc1ccc(OC(F)(F)F)cc1` [Compound 33], with “C (89-80)”; and `O=C(NN=C(Cc1ccc(Cl)cc1)c1cccc(F)c1)Nc1ccc(Cl)cc1` [Compound 34], with “A (100)”.
Then `N#Cc1ccc(CC(=NNC(=O)Nc2ccc(OC(F)(F)F)cc2)c2cccc(F)c2)cc1` [Compound 35], with “A (100)”; and `N#Cc1ccc(CC(=NNC(=O)Nc2ccc(Cl)cc2)c2cccc(I)c2)cc1` [Compound 36], with “B (99-90)”; and `N#Cc1ccc(CC(=NNC(=O)Nc2ccc(OC(F)(F)F)cc2)c2cccc(I)c2)cc1` [Compound 37], with “A (100)”.
The result for `Cc1cccc(C(Cc2ccccc2)=NNC(=O)Nc2ccc(Cl)cc2)c1` [Compound 38] reads “B (99-90)”.
On to `Cc1cccc(C(Cc2ccccc2)=NNC(=O)Nc2ccc(OC(F)(F)F)cc2)c1` [Compound 39], for which the Termite-killing effect entry is listed as “A (100)”.
Then `Cc1cccc(C(Cc2ccc(C#N)cc2)=NNC(=O)Nc2ccc(Cl)cc2)c1` [Compound 40], with “D (79-50)”; and `Cc1cccc(C(Cc2ccc(C#N)cc2)=NNC(=O)Nc2ccc(OC(F)(F)F)cc2)c1` [Compound 41], with “A (100)”.
Then `O=C(NN=C(Cc1ccccc1)c1cccc(C(F)(F)F)c1)Nc1ccc(Cl)cc1` [Compound 42], with “A (100)”; and `O=C(NN=C(Cc1ccccc1)c1cccc(C(F)(F)F)c1)Nc1ccc(OC(F)(F)F)cc1` [Compound 43], with “A (100)”; and `N#Cc1ccc(CC(=NNC(=S)Nc2ccc(OC(F)(F)F)cc2)c2cccc(C(F)(F)F)c2)cc1` [Compound 45], with “A (100)”.
For `CN(C(=O)NN=C(Cc1ccccc1)c1ccccc1)c1ccc(Cl)cc1` [Compound 46], the Termite-killing effect result was “A (100)”.
The result for `CN(C(=O)NN=C(Cc1ccccc1)c1ccccc1)c1ccc(OC(F)(F)F)cc1` [Compound 47] reads “A (100)”; that for `CC(C(=NNC(=O)Nc1ccc(Cl)cc1)c1ccccc1)c1ccccc1` (stereo not shown) [Compound 48], “A (100)”; that for `CC(C(=NNC(=O)Nc1ccc(Br)cc1)c1ccccc1)c1ccccc1` (stereo not shown) [Compound 49], “C (89-80)”.
The result for `CC(C(=NNC(=O)Nc1ccc(OC(F)(F)F)cc1)c1ccccc1)c1ccccc1` (stereo not shown) [Compound 51] reads “A (100)”.
For `CC(C(=NNC(=O)Nc1ccc(OC(F)(F)F)cc1)c1ccccc1)c1ccccc1` (stereo not shown) [Compound 52], the Termite-killing effect result is given as “A (100)”.
The result for `CC(C(=NNC(=O)Nc1ccc(Cl)cc1)c1ccccc1)c1ccc(Cl)cc1` (stereo not shown) [Compound 53] reads “B (99-90)”.
The result for `CC(C(=NNC(=O)Nc1ccc(OC(F)(F)F)cc1)c1ccccc1)c1ccc(Cl)cc1` (stereo not shown) [Compound 54] reads “A (100)”; that for `CC(C(=NNC(=O)Nc1ccc(Cl)cc1)c1cccc(Cl)c1)c1ccc(C#N)cc1` (stereo not shown) [Compound 55], “A (100)”; that for `CC(C(=NNC(=O)Nc1ccc(OC(F)(F)F)cc1)c1cccc(Cl)c1)c1ccc(C#N)cc1` (stereo not shown) [Compound 56], “A (100)”.
The result for `O=C(NN=C(c1ccccc1)C(O)c1ccccc1)Nc1ccc(Cl)cc1` (stereo not shown) [Compound 57] reads “D (79-50)”.
`O=C(NN=C(c1ccccc1)C(O)c1ccccc1)Nc1ccc(OC(F)(F)F)cc1` (stereo not shown) [Compound 58]: the Termite-killing effect result is “A (100)”.
Then `O=C(NN=C(c1ccccc1)C(O)c1ccc(Cl)cc1)Nc1ccc(Cl)cc1` (stereo not shown) [Compound 59], with “C (89-80)”; and `O=C(NN=C(c1ccccc1)C(O)c1ccc(Cl)cc1)Nc1ccc(OC(F)(F)F)cc1` (stereo not shown) [Compound 60], with “C (89-80)”.
The result for `N#Cc1ccc(CC(=NNC(=O)Nc2ccc([S+]([O-])C(F)(F)F)cc2)c2cccc(F)c2)cc1` (stereo not shown) [Compound 77] reads “A (100)”; that for `N#Cc1ccc(CC(=NNC(=O)Nc2ccc(S(=O)(=O)C(F)(F)F)cc2)c2ccc(F)cc2)cc1` [Compound 78], “A (100)”; that for `N#Cc1ccc(CC(=NNC(=O)Nc2ccc([S+]([O-])C(F)(F)F)cc2)c2cccc(Cl)c2)cc1` (stereo not shown) [Compound 79], “B (99-90)”.
The result for `N#Cc1ccc(CC(=NNC(=O)Nc2ccc(SC(F)(F)F)cc2)c2cccc(C(F)(F)F)c2)cc1` [Compound 80] reads “A (100)”.
Take `N#Cc1ccc(CC(=NNC(=O)Nc2ccc([S+]([O-])C(F)(F)F)cc2)c2cccc(C(F)(F)F)c2)cc1` (stereo not shown) [Compound 81]: the Termite-killing effect entry is recorded as “A (100)”.
The result for `N#Cc1ccc(CC(=NNC(=O)Nc2ccc(OC(F)(F)F)cc2)c2cccc(C(F)(F)F)c2)cc1` [Compound 82] reads “B (99-90)”; that for `N#Cc1ccc(CC(=NNC(=O)Nc2ccc(Cl)cc2)c2cccc(C(F)(F)F)c2)cc1` [Compound 83], “D (79-50)”; that for `N#Cc1ccc(CC(NNC(=O)Nc2ccc(OC(F)(F)F)cc2)c2cccc(Cl)c2)cc1` (stereo not shown) [Compound 91], “A (100)”.
The result for `N#Cc1ccc(CC(NNC(=O)Nc2ccc(SC(F)(F)F)cc2)c2cccc(Cl)c2)cc1` (stereo not shown) [Compound 92] reads “A (100)”.
